Source: patent publication US20240150365A1 (Hotspot Therapeutics, Inc., priority 2022, published 2024)

What was measured:
NF-kB = NF-kB reporter assay in Jurkat cells stimulated with aCD3/aCD28/PMA; format: cell-based; conditions: Homo sapiens, Jurkat, Jurkat cells, 1 hr compound incubation, aCD3/aCD28/PMA stimulation 4 hr, One-Glo readout; read-out: NF-kB Reporter Assay IC50
Procedure, shortened: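 Jurkat cells (25,000/well, serum-free RPMI 1640) preincubated 1 hr at 37° C with serially diluted compound, then stimulated with aCD3/aCD28/PMA (final 5 μg/mL, 5 μg/mL, 0.03 μg/mL) for 4 hr. Reporter luminescence read with One-Glo; IC50 derived.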

MALT1 = target: T1, MALT1 (Homo sapiens, UniProt Q9UDY8); test: MALT-1 Fluorogenic Peptide Cleavage Assay (MALT1 inhibition assay); format: biochemical; conditions: Avi-tagged FL MALT-1, Ac-LRSR-AMC peptide substrate, 30 min pre-incubation, 90 min reaction
T1 construct: Avi-tagged FL MALT-1 (Pharmaron, stored at −70° C.); Avi tag
T1 sequence (Q9UDY8 1-824): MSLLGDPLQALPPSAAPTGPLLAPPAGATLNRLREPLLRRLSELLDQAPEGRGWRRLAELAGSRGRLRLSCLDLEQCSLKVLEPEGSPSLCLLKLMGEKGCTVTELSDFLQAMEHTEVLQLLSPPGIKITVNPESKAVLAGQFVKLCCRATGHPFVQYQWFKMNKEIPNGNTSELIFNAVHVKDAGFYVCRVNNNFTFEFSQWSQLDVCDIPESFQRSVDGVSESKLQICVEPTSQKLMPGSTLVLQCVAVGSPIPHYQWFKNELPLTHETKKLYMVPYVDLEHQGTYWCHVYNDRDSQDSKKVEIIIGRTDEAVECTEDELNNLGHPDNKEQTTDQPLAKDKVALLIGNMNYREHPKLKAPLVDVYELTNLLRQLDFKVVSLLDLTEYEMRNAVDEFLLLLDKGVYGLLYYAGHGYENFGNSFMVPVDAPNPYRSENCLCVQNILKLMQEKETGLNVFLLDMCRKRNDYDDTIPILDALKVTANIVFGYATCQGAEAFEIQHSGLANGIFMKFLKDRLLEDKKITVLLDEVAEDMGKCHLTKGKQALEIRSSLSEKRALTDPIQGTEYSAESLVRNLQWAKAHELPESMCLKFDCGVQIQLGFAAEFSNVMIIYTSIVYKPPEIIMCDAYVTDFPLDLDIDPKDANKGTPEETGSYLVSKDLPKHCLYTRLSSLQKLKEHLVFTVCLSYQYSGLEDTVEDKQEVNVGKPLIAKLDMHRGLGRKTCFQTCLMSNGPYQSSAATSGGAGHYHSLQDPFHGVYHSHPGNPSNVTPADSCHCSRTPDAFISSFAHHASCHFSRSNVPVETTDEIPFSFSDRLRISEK
Procedure, shortened: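 Avi-tagged full-length MALT1 pre-incubated 30 min with compound (2% DMSO final), then cleavage of Ac-LRSR-AMC followed over 90 min at room temperature. AMC fluorescence read at 342/441 nm; % inhibition fitted to sigmoidal curves for IC50.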

Structure (SMILES) | IC50 (NF-kB) [nM] | IC50 (MALT1) [nM]
Cn1ncc2cccc(NS(=O)(=O)c3ccc(-n4cc(C#N)cn4)nc3)c21 [Example I-39, 6-(4-Cyano-1H-Pyrazol-1-yl)-N-(1-Methyl-1H-Indazol-7-yl)Pyridine-3-Sulfonamide] | 400 to 1000 | > 2500
COCCn1ncc2cccc(NS(=O)(=O)c3ccc(-n4cc(C)cn4)nc3)c21 [Example I-217, N-(1-(2-Methoxyethyl)-1H-Indazol-7-yl)-6-(4-Methyl-1H-Pyrazol-1-yl)Pyridine-3-Sulfonamide] | > 2500 | > 2500
Cn1ncc2cccc(NS(=O)(=O)c3ccc(-c4cnn5c4COCC5)nc3)c21 [Example I-270, 6-(6,7-dihydro-4H-pyrazolo[5,1-c][1,4]oxazin-3-yl)-N-(1-methyl-1H-indazol-7-yl)pyridine-3-sulfonamide] | < 400 | > 2500
CCc1ccc2cnn(C)c2c1NS(=O)(=O)c1ccc(-c2cc(C(F)(F)F)n[nH]2)nc1 [Example I-1] | < 400 | < 400
Cn1nccc1-c1ccc(S(=O)(=O)Nc2cccc3cnn(C)c23)cn1 [Example I-82, N-(1-Methyl-1H-Indazol-7-yl)-6-(1-Methyl-1H-Pyrazol-5-yl)Pyridine-3-Sulfonamide] | 400 to 1000 | > 2500
COc1ccc2cnn(C)c2c1NS(=O)(=O)c1ccc(-c2cnn3c2COCCC3)nc1 [Example I-310, 6-(7,8-dihydro-4H,6H-pyrazolo[5,1-c][1,4]oxazepin-3-yl)-N-(6-methoxy-1-methyl-1H-indazol-7-yl)pyridine-3-sulfonamide] | > 2500 | > 2500
CCC(=O)c1cnn(-c2ccc(S(=O)(=O)Nc3cccc4cnn(C)c34)cn2)c1 [Example I-152, N-(1-Methyl-1H-Indazol-7-yl)-6-(4-Propionyl-1H-Pyrazol-1-yl)Pyridine-3-Sulfonamide] | < 400 | > 2500
Cn1ncc2cccc(NS(=O)(=O)c3ccc(-n4cc(C(F)(F)F)cn4)nc3)c21 [Example I-23, N-(1-Methyl-1H-Indazol-7-yl)-6-(4-(Trifluoromethyl)-1H-Pyrazol-1-yl)Pyridine-3-Sulfonamide] | < 400 | 400 to 1000
Cn1ncc2cccc(NS(=O)(=O)c3ccc(-c4cncc(Cl)c4)nc3)c21 [Example I-121, 5′-Chloro-N-(1-Methyl-1H-Indazol-7-yl)-[2,3′-Bipyridine]-5-Sulfonamide] | < 400 | > 2500

The remaining lines, values ahead:

IC50 (NF-kB) [nM] | IC50 (MALT1) [nM] | Structure (SMILES)
< 400 | < 400 | COc1ccc2cnn(C)c2c1NS(=O)(=O)c1ccc(-n2cc([N+](=O)[O-])cn2)nc1 [Example I-157, N-(6-Methoxy-1-Methyl-1H-Indazol-7-yl)-6-(4-Nitro-1H-Pyrazol-1-yl)Pyridine-3-Sulfonamide]
400 to 1000 | 1000 to 2500 | COc1ccc2cnn(C)c2c1NS(=O)(=O)c1ccc(-c2cnn(C)c2)nc1 [Example I-20, N-(6-Methoxy-1-Methylindazol-7-yl)-6-(1-Methylpyrazol-4-yl)Pyridine-3-Sulfonamide]
< 400 | < 400 | COc1ncc2cnn(C)c2c1NS(=O)(=O)c1ccc(-n2ccc(C3CC3)n2)nc1 [Example I-185, 6-(3-cyclopropyl-1H-pyrazol-1-yl)-N-(6-methoxy-1-methyl-1H-pyrazolo[4,3-c]pyridin-7-yl)pyridine-3-sulfonamide]
< 400 | > 2500 | COc1ccc2[nH]nc(C)c2c1NS(=O)(=O)c1ccc(-c2cnn3c2CCC3)nc1 [Example I-295]
< 400 | < 400 | [2H]C([2H])(C)c1ccc2cnn(C)c2c1NS(=O)(=O)c1ccc(-n2cc(C(F)(F)F)cn2)nc1 [Example I-70, N-(6-(Ethyl-1,1-D2)-1-Methyl-1H-Indazol-7-yl)-6-(4-(Trifluoromethyl)-1H-Pyrazol-1-yl)Pyridine-3-Sulfonamide]
< 400 | > 2500 | COc1ccc2cnn(C)c2c1NS(=O)(=O)c1ccc(-c2ccn(C)n2)nc1 [Example I-19, N-(6-Methoxy-1-Methylindazol-7-yl)-6-(1-Methylpyrazol-3-yl)Pyridine-3-Sulfonamide]
< 400 | > 2500 | COc1ccc2cnn(C)c2c1NS(=O)(=O)c1ccc(-c2cn(C)nn2)nc1 [Example I-21, N-(6-Methoxy-1-Methyl-1H-Indazol-7-yl)-6-(1-Methyl-1H-1,2,3-Triazol-4-yl)Pyridine-3-Sulfonamide]
< 400 | > 2500 | Cc1cc(-c2ccc(S(=O)(=O)Nc3cccc4cnn(C)c34)cn2)ccn1 [Example I-132, 2′-methyl-N-(1-methylindazol-7-yl)-[2,4′-bipyridine]-5-sulfonamide]
400 to 1000 | > 2500 | O=S(=O)(c1ccc(-n2cc(C(F)(F)F)cn2)nc1)N1CCCCn2ncc3cccc1c32 [Example I-293, 1-((6-(4-(trifluoromethyl)-1H-pyrazol-1-yl)pyridin-3-yl)sulfonyl)-2,3,4,5-tetrahydro-1H-[1,4]diazocino[3,2,1-hi]indazole]
< 400 | < 400 | Cn1ncc2ccc(O)c(NS(=O)(=O)c3ccc(-n4cc(C(F)(F)F)cn4)nc3)c21 [Example I-159, N-(6-Hydroxy-1-Methyl-1H-Indazol-7-yl)-6-(4-(Trifluoromethyl)-1H-Pyrazol-1-yl)Pyridine-3-Sulfonamide]
1000 to 2500 | > 2500 | Cc1ncc2cccc(NS(=O)(=O)c3ccc(-n4cc(C(F)(F)F)cn4)nc3)n12 [Example I-199, N-(3-methylimidazo[1,5-a]pyridin-5-yl)-6-(4-(trifluoromethyl)-1H-pyrazol-1-yl)pyridine-3-sulfonamide]
> 2500 | 1000 to 2500 | Cn1cc2ccc(Cl)c(NS(=O)(=O)c3ccc(-n4cc(C(F)(F)F)cn4)nc3)c2n1 [Example I-25, N-(6-Chloro-2-Methyl-2H-Indazol-7-yl)-6-(4-(Trifluoromethyl)-1H-Pyrazol-1-yl)Pyridine-3-Sulfonamide]
< 400 | < 400 | COc1ccc2cnn(C)c2c1NS(=O)(=O)c1ccc(-n2cc(C(C)(F)F)cn2)nc1 [Example I-191, 6-(4-(1,1-difluoroethyl)-1H-pyrazol-1-yl)-N-(6-methoxy-1-methyl-1H-indazol-7-yl)pyridine-3-sulfonamide]
